Assay results reported in patent US8680012B2, “4-phenyl-pyrane-3,5-diones,4-phenyl-thiopyrane-3,6-diones and cyclohexanetriones as novel herbicides” (Syngenta Crop Protection LLC, priority 2006, dated 2014).

Key:
[1] = test system: Avena fatua (AVEFA); assay: Example B post-emergence herbicidal activity, glasshouse pot test; assay type: in vivo; details: 312 h, rate 250 g/ha, evaluated after 13 days, read-out: Post-emergence activity AVEFA (100=total damage to plant; 0=no damage to plant)
Procedure, shortened: (§1)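 Pot-grown plants sprayed one day after sowing (pre-emergence) or after 8 days (post-emergence) with compound in acetone/water 50:50 containing 0.5% Tween 20. Glasshouse at 24/16 °C day/night, 14 h light, 65% humidity; damage scored after 13 days, 0 = none to 100 = total.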

[2] = test system: Amaranthus retroflexus (AMARE); assay: as above; assay type: in vivo; details: 312 h, rate 250 g/ha, evaluated after 13 days, read-out: Post-emergence activity AMARE (100=total damage to plant; 0=no damage to plant)
Procedure, shortened: as §1

[3] = test system: Echinochloa crus-galli (ECHCG); assay: as above; assay type: in vivo; details: 312 h, rate 250 g/ha, evaluated after 13 days, read-out: Post-emergence activity ECHCG (100=total damage to plant; 0=no damage to plant)
Procedure, shortened: as §1

[4] = test system: Alopecurus myosuroides (ALOMY); assay: as above; assay type: in vivo; details: 312 h, rate 250 g/ha, evaluated after 13 days, read-out: Post-emergence activity ALOMY (100=total damage to plant; 0=no damage to plant)
Procedure, shortened: as §1

[5] = test system: Setaria faberi (SETFA); assay: as above; assay type: in vivo; details: 312 h, rate 250 g/ha, evaluated after 13 days, read-out: Post-emergence activity SETFA (100=total damage to plant; 0=no damage to plant)
Procedure, shortened: as §1

[6] = test system: Avena fatua (AVEFA); assay: Example B pre-emergence herbicidal activity, glasshouse pot test; assay type: in vivo; details: 312 h, rate 250 g/ha, evaluated after 13 days, read-out: Pre-emergence activity AVEFA (100=total damage to plant; 0=no damage to plant)
Procedure, shortened: as §1

[7] = test system: Amaranthus retroflexus (AMARE); assay: as above; assay type: in vivo; details: 312 h, rate 250 g/ha, evaluated after 13 days, read-out: Pre-emergence activity AMARE (100=total damage to plant; 0=no damage to plant)
Procedure, shortened: as §1

[8] = test system: Echinochloa crus-galli (ECHCG); assay: as above; assay type: in vivo; details: 312 h, rate 250 g/ha, evaluated after 13 days, read-out: Pre-emergence activity ECHCG (100=total damage to plant; 0=no damage to plant)
Procedure, shortened: as §1

[9] = test system: Alopecurus myosuroides (ALOMY); assay: as above; assay type: in vivo; details: 312 h, rate 250 g/ha, evaluated after 13 days, read-out: Pre-emergence activity ALOMY (100=total damage to plant; 0=no damage to plant)
Procedure, shortened: as §1

[10] = test system: Setaria faberi (SETFA); assay: as above; assay type: in vivo; details: 312 h, rate 250 g/ha, evaluated after 13 days, read-out: Pre-emergence activity SETFA (100=total damage to plant; 0=no damage to plant)
Procedure, shortened: as §1

[11] = test system: Avena fatua (AVEFA); assay: Example A post-emergence herbicidal activity, glasshouse pot test; assay type: in vivo; details: 360 h, rate 125 g/ha, evaluated 15 days after spraying, read-out: Post-emergence activity AVEFA (100=total damage to plant; 0=no damage to plant)
Procedure: (§2) Seeds of a variety of test species were sown in standard soil in pots. After cultivation for one day (pre-emergence) or after 10 days cultivation (post-emergence) under controlled conditions in a glasshouse, the plants were sprayed with an aqueous spray solution derived from the formulation of the technical active ingredient in 0.6 ml acetone and 45 ml formulation solution containing 10.6% Emulsogen EL (Registry number 61791-12-6), 42.2% N-methylpyrrolidone, 42.2% dipropylene glycol monomethyl ether (Registry number 34590-94-8) and 0.2% X-77 (Registry number 11097-66-8). The test plants were then grown in a greenhouse under optimum conditions until, 15 days later for post-emergence and 20 days for pre-emergence, the test was evaluated (100=total damage to plant; 0=no damage to plant).
(§3) Alopecurus myosuroides (ALOMY), Avena fatua (AVEFA), Lolium perenne (LOLPE), Setaria faberi (SETFA), Digitaria sanguinalis (DIGSA), Echinochloa crus-galli (ECHCG)

[12] = test system: Digitaria sanguinalis (DIGSA); assay: as above; assay type: in vivo; details: 360 h, rate 125 g/ha, evaluated 15 days after spraying, read-out: Post-emergence activity DIGSA (100=total damage to plant; 0=no damage to plant)
Procedure: as §2, §3

[13] = test system: Lolium perenne (LOLPE); assay: as above; assay type: in vivo; details: 360 h, rate 125 g/ha, evaluated 15 days after spraying, read-out: Post-emergence activity LOLPE (100=total damage to plant; 0=no damage to plant)
Procedure: as §2, §3

[14] = test system: Echinochloa crus-galli (ECHCG); assay: as above; assay type: in vivo; details: 360 h, rate 125 g/ha, evaluated 15 days after spraying, read-out: Post-emergence activity ECHCG (100=total damage to plant; 0=no damage to plant)
Procedure: as §2, §3

[15] = test system: Alopecurus myosuroides (ALOMY); assay: as above; assay type: in vivo; details: 360 h, rate 125 g/ha, evaluated 15 days after spraying, read-out: Post-emergence activity ALOMY (100=total damage to plant; 0=no damage to plant)
Procedure: as §2, §3

[16] = test system: Setaria faberi (SETFA); assay: as above; assay type: in vivo; details: 360 h, rate 125 g/ha, evaluated 15 days after spraying, read-out: Post-emergence activity SETFA (100=total damage to plant; 0=no damage to plant)
Procedure: as §2, §3

[17] = test system: Avena fatua (AVEFA); assay: Example A pre-emergence herbicidal activity, glasshouse pot test; assay type: in vivo; details: 480 h, rate 250 g/ha, evaluated 20 days after spraying, read-out: Pre-emergence activity AVEFA (100=total damage to plant; 0=no damage to plant)
Procedure: as §2, §3

[18] = test system: Digitaria sanguinalis (DIGSA); assay: as above; assay type: in vivo; details: 480 h, rate 250 g/ha, evaluated 20 days after spraying, read-out: Pre-emergence activity DIGSA (100=total damage to plant; 0=no damage to plant)
Procedure: as §2, §3

[19] = test system: Lolium perenne (LOLPE); assay: as above; assay type: in vivo; details: 480 h, rate 250 g/ha, evaluated 20 days after spraying, read-out: Pre-emergence activity LOLPE (100=total damage to plant; 0=no damage to plant)
Procedure: as §2, §3

[20] = test system: Echinochloa crus-galli (ECHCG); assay: as above; assay type: in vivo; details: 480 h, rate 250 g/ha, evaluated 20 days after spraying, read-out: Pre-emergence activity ECHCG (100=total damage to plant; 0=no damage to plant)
Procedure: as §2, §3

[21] = test system: Alopecurus myosuroides (ALOMY); assay: as above; assay type: in vivo; details: 480 h, rate 250 g/ha, evaluated 20 days after spraying, read-out: Pre-emergence activity ALOMY (100=total damage to plant; 0=no damage to plant)
Procedure: as §2, §3

[22] = test system: Setaria faberi (SETFA); assay: as above; assay type: in vivo; details: 480 h, rate 250 g/ha, evaluated 20 days after spraying, read-out: Pre-emergence activity SETFA (100=total damage to plant; 0=no damage to plant)
Procedure: as §2, §3

Compound	melting point	pest or weed control at 125 g/ha [11]	pest or weed control at 125 g/ha [12]	pest or weed control at 125 g/ha [13]	pest or weed control at 125 g/ha [14]	pest or weed control at 125 g/ha [15]	pest or weed control at 125 g/ha [16]	pest or weed control at 250 g/ha [17]	pest or weed control at 250 g/ha [18]	pest or weed control at 250 g/ha [19]	pest or weed control at 250 g/ha [20]	pest or weed control at 250 g/ha [21]	pest or weed control at 250 g/ha [22]	also measured
CCc1ccc(-c2ccc(Cl)cc2)cc1C1=C(O)C(C)(C)OC(C)(COC)C1=O (stereo not shown) [Compound A-99]	123 to 124 °C													pest or weed control at 250 g/ha [1]: 90%; pest or weed control at 250 g/ha [2]: 0%; pest or weed control at 250 g/ha [3]: 100%; pest or weed control at 250 g/ha [4]: 90%; pest or weed control at 250 g/ha [5]: 100%; pest or weed control at 250 g/ha [6]: 50%; pest or weed control at 250 g/ha [7]: 20%; pest or weed control at 250 g/ha [8]: 100%; pest or weed control at 250 g/ha [9]: 80%; pest or weed control at 250 g/ha [10]: 100%
CCc1ccc(-c2ccc(Cl)cc2)cc1C1=C(O)C2CCCC(C1=O)C2=O (stereo not shown) [Compound B-53]	79.5 °C													
CCc1ccc(-c2ccc(F)cc2)cc1C1=C(O)[C@@]2(C)CC[C@H](O2)C1=O [Compound A-38]	165 to 167 °C	60%	70%	0%	90%	50%	80%	10%	30%	60%	70%	50%	90%	
Cc1ccc(-c2ccc(Cl)cc2Cl)cc1C1=C(O)C(C)(C)OC(C)(C)C1=O [Compound A-49]		70%	70%	80%	80%	50%	50%	20%	50%	20%	100%	0%	50%	
CCc1ccc(-c2ccc(Cl)c(Cl)c2)cc1C1=C(O)C(C)(C)OC(C)(C)C1=O [Compound A-42]		90%	100%	70%	100%	80%	100%	30%	100%	50%	80%	100%	100%	
